The nature of assay [1]: Trypanosoma cruzi growth suppression in host cells – NIH3T3 host cells, beta-gal luminescence, confirmation (AID 2044).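 Also: intracellular parasites grown in NIH/3T3 mouse fibroblasts as host cells; luminescent beta-galactosidase reporter signal from transgenic T. cruzi replicating inside host cells; inhibitors lower the luminescence signal.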 Format: functional, cell-based.
Assay [2] can be described thus: NIH3T3 cell viability loss – ATP luminescence, mouse fibroblasts, counter-screen, dose response (AID 2010).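 Also: cells exposed to compound for about 90 hours before reading.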 Format: functional, cell-based. For orientation: Counterscreens check selectivity or assay interference.
Assay [3] addresses T1, Heat shock factor protein 1 (Mus musculus, UniProt P38532).
T1 sequence (P38532 whole entry): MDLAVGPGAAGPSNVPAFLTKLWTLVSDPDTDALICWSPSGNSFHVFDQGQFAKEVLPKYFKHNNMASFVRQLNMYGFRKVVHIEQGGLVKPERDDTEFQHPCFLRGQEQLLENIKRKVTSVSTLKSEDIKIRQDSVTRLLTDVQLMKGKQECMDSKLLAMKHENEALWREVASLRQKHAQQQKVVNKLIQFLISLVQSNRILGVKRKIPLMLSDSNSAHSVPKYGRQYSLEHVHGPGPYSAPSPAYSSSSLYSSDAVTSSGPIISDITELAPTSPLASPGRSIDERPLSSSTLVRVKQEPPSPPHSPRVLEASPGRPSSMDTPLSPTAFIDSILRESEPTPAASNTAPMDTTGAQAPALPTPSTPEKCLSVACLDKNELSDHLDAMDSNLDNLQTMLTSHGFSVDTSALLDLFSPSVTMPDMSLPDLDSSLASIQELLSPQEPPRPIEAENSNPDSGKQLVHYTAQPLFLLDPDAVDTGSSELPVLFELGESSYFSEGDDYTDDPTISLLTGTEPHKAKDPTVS
Description: decrease of HSF1-responsive luciferase luminescence – cell-based, NIH3T3, dose retest, confirmation (AID 2382).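 Also: NIH3T3 fibroblasts with HSF1-driven luciferase reporter stressed by proteasome inhibitor MG132; luminescence from HSF1-driven luciferase expression after 8 hours of MG132 stress.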 Format: functional.

Assay [4] concerns the target Cytochrome P450 3A4 (Homo sapiens, UniProt P08684).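 Also: CYP3A4 tested as one member of a cytochrome P450 panel screen.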
Assay [5] relates to Streptococcus sp. 'group A'. As to the kind of experiment: Streptococcus pyogenes SK(-)GAS viability under kanamycin – luminescence, BacTiterGlo, confirmation, counter-screen for streptokinase expression inhibitor project, dose response (AID 1900). Format: functional, organism-based.
Assay [6] deals with T2, Streptokinase A (Streptococcus pyogenes serotype M1, UniProt P10520).
T2 sequence (P10520 whole entry): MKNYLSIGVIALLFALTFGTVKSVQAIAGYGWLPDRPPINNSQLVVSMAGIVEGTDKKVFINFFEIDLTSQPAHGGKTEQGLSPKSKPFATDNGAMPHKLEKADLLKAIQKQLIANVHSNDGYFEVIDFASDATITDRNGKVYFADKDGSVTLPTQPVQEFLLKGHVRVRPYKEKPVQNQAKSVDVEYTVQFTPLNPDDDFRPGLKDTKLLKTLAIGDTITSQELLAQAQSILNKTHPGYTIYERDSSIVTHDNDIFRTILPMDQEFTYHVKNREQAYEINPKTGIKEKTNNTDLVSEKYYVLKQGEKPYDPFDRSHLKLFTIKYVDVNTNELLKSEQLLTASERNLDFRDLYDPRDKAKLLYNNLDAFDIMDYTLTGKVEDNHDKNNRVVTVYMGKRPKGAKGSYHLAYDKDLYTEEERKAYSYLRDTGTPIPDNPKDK
As to the kind of experiment: viability-normalized secreted streptokinase activity reduction – plasminogen activation absorbance, OD405, dose response (AID 1914).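 Also: secreted streptokinase activity via plasminogen activation per viability signal from cell pellet.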 Format: functional, Streptococcus pyogenes M1 GAS.

For assay [7], the system named is Streptococcus. As to the kind of experiment: GAS UMAA2166 growth inhibition – luminescence, BacTiterGlo, counter-screen for streptokinase expression inhibitor project, dose response (AID 1915).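 Also: potency for reduction of bacterial viability or growth.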 Format: functional, organism-based.
For assay [8], the system named is INS1. As to the kind of experiment: INS-1E survival protection against cytokine death – cell-based, luminescence, retest, dose response (AID 449756).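 Also: cell death triggered by IL-1 beta plus TNF-alpha plus IFN-gamma mixture; protective hits raise ATP signal compared with cytokine alone wells.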 Format: functional. Conditions: Rattus norvegicus.

“And” between values parts separate entries of the source, which are not always exact repeats. Equal values may be shown once. The source made the active and inactive calls. Rule as the data show it, for most assays here: actives have a measured EC50 and inactives only a lower limit.

Cytochrome P450 3A4, sequence (P08684 whole entry): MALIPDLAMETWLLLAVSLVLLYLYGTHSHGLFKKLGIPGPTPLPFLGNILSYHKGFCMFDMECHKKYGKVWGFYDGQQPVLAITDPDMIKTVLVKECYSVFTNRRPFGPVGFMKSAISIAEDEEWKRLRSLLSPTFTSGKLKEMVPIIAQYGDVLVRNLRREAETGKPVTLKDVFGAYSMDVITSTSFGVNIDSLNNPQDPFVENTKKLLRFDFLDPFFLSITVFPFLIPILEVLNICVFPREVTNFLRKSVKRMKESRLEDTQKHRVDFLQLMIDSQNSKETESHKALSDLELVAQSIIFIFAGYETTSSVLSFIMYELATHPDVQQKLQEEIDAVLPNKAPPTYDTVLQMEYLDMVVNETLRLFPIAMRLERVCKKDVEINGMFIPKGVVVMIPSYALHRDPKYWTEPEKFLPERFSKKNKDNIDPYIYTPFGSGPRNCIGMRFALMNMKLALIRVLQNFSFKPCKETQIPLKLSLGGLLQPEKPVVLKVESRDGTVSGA

The term EC50 denotes the concentration needed to bring the measured effect to its halfway point. With `CCOC(=O)N1CCN(CC(O)COCCC23CC4CC(CC(C4)C2)C3)CC1` (configuration not stated), the EC50 in assay [1] was 1.16 µM (active); in assay [2], > 30 µM (not active).
For the compound `COc1ccc(N2C(=O)CC(c3ccc(OC(C)C)cc3)C2=O)cc1` (configuration not stated), in assay [3], the EC50 is > 195 µM (not active).
By AC50 is commonly meant the midpoint of the concentration-response curve, whichever way the signal moves. For the compound `Cn1c(=O)c2nc(CCCc3ccc([N+](=O)[O-])cc3)[nH]c2n(C)c1=O`, the AC50 in assay [4] was 3.98 µM (inconclusive).
`NC(=O)c1ccsc1NC(=O)C1CCCCC1`: the EC50 in assay [3] is reported as > 195 µM (not active).
`NC(=O)COC(=O)c1ccccc1Oc1ccccc1`: the EC50 in assay [3] is > 195 µM (not active).
As for `Cc1ccc([C@@H](O)c2cnc(C)n2Cc2ccccc2)cc1`, the AC50 in assay [4] was 5.01 µM (inconclusive).
`COc1ccccc1OCC(=O)Nc1c2c(nn1-c1ccc(F)cc1)CS(=O)(=O)C2`: the EC50 in assay [5], in assay [6] and in assay [7] was > 150 µM (not active) each time.
`COc1ccc2[nH]cc(CCNc3ncnc4ccc(-c5ccccc5OC)cc34)c2c1`: the AC50 in assay [4] was 0.794 µM (inconclusive).
For `C=CCn1c(SCN2C(=O)c3ccccc3C2=O)nc2ccc(Cl)cc2c1=O`, the AC50 in assay [8] was 7.25 µM (active).
As to `O=C(CN(C(=O)Cn1nnc(-c2ccccc2F)n1)c1cccc2c1CCCC2)NCc1ccccc1`, the values for the concentration for a half-maximal effect (EC50) in assay [5], in assay [6] and in assay [7] were 11.2 µM (active), > 150 µM (not active) and > 150 µM (not active), respectively.
As for `COc1cc2c(-c3ccccc3)c(C)oc2cc1/C=N/NC(N)=S`, the EC50 in assay [1] is 0.102 µM (active); in assay [2], > 60 µM (not active).
For `CC(C)CN(C(=O)COC(=O)c1ccc([N+](=O)[O-])s1)c1c(N)n(Cc2ccccc2)c(=O)[nH]c1=O`, in that order: 1.06 µM (active) and 4.8 µM (active).
Consider `O=C(O)CC1SC(=O)N(Cc2ccccc2)C1=O` (configuration not stated), for which, in assay [3], the EC50 was > 195 µM (not active).
As to `c1ccc(/C(=N/Nc2nc3ccccc3s2)c2ccccn2)cc1`, the AC50 in assay [4] was 3.98 µM (inconclusive).
For the compound `Cc1ccc(S(=O)(=O)N(C)c2ccccc2C(=O)NC2CCCC2)cc1`, in assay [3], the EC50 is listed as > 195 µM (not active).
With `CCc1c(C)nc2cc(-c3ccc(OC)c(OC)c3)nn2c1N1CCC(C)CC1`, the EC50 in assay [5] is 5.05 µM (active); in assay [6], 16.6 µM (active); in assay [7], 14.7 µM (active).
As for `CSc1nc(SCC(=O)NC(c2ccccc2)c2ccccc2)c2c3c(sc2n1)CN(C)CC3`, the EC50 in assay [1] is 0.237 µM (active); in assay [2], > 60 µM (not active).
For the compound `CCC(C)C(NC(=O)C1CCC(=O)N1C(=O)OCc1ccccc1)C(=O)NC(C(=O)N1CCCC1C(N)=O)C(C)CC` (configuration not stated), in assay [3], the half-maximal effective concentration (EC50) is listed as > 195 µM (not active).
With `O=C(c1ccc(Cl)cc1Cl)C1(n2cncn2)Oc2ccccc2C1O` (configuration not stated), the EC50 in assay [1] is 0.535 µM (active); in assay [2] it was 18 µM (active).
`O=C(CCc1nnc2ccc(N3CCC4(CC3)OCCO4)nn12)NCc1ccc(F)cc1`: the EC50 in assay [3] was > 195 µM (not active).
With `O=c1[nH]c(NCCCO)nc2c1C1(CCCC1)Cc1ccccc1-2`, in assay [8], the AC50 was > 260 µM (inactive).
Turning to `N=C(NOC(=O)c1cccc(Cn2cc(C(F)(F)F)ccc2=O)c1)c1ccc(Cl)cc1`, the AC50 in assay [8] is 12.4 µM (active).
On the same count and under the same terms, next, `COc1ccc(C(=O)N(C)c2ccccc2C(=O)NCCc2ccccc2)cc1`: 4.32 µM (active).
For `CN(C)c1ccc(-c2nc(N3CCNCC3)c3ccccc3n2)cc1`, the AC50 in assay [4] was 31.6 µM (inconclusive).
As for `COc1ccc(S(=O)(=O)NCC(c2cccnc2)N2CCN(C)CC2)cc1OC` (configuration not stated), the EC50 in assay [3] is > 195 µM (not active).
Still for that read-out and setting: next, `CCOC(=O)CSc1ccc(C(=O)NCCCN2CCOCC2)cc1[N+](=O)[O-]`: > 195 µM (not active).
In the case of `CCN(CC)P(=O)(Nc1ccc(C)cc1Br)c1ccc(N(C)C)cc1NC(=O)c1ccco1` (configuration not stated), the EC50 in assay [1] is 2.27 µM (active); in assay [2] it was > 60 µM (inconclusive).
For `Cc1c(C(=O)NCc2ccc3c(c2)OCO3)sc2nc(-c3ccccc3)cn12`, in assay [3], the EC50 was > 195 µM (not active).
Regarding `COc1ccccc1C(=O)NCCC(=O)NNC(=O)Cn1ccc(C(F)(F)F)n1`, the EC50 in assay [3] is listed as > 195 µM (not active).
Turning to `CCCCc1ccc(NC(S)=NCc2cccs2)cc1`, the EC50 was 2.6 µM (active) in assay [1] and > 60 µM (not active) in assay [2].
For the compound `CC1CC(c2ccccc2)n2nc(NC(=O)c3cccs3)nc2N1` (configuration not stated), in assay [3], the EC50 was > 195 µM (not active).
On the same count and under the same terms, next, `NC=C1C(=O)N(c2ccccc2)C(=O)N(c2ccccc2)C1=O`: > 195 µM (not active).
Regarding `O=C(c1cnccn1)N1CCC[C@@]2(CCN(c3ncccn3)C2)C1`, the AC50 in assay [4] is 15.8 µM (inconclusive).
With `CC(Sc1nnnn1C)C(=O)Nc1ccc(Oc2ccccc2)cc1` (configuration not stated), in assay [3], the EC50 is on record as > 195 µM (not active).
As to `COCC(=O)N1CCC[C@@]2(CCN(Cc3ccccc3)C2)C1`, the AC50 in assay [4] was 25.1 µM (inconclusive).
As for `CCOc1cc(C(=O)NCc2ccccc2)ccc1OCC(=O)N1CCOCC1`, in assay [3], the EC50 is recorded as > 195 µM (not active).
In the case of `Cc1ccc(-n2c(O)cnc2Nc2nc(C)cc(C)n2)cc1`, the AC50 in assay [4] was 31.6 µM (inconclusive).
Regarding `C/C(=N/NC(=S)Nc1cccc(C)c1)c1cccc([N+](=O)[O-])c1`, the results for the EC50 in assay [1] and in assay [2] were 1.63 µM (active) and > 60 µM (not active), respectively.
Turning to `CCCCn1c(SCC(=O)NCc2ccco2)nc2c(sc3ccccc32)c1=O`, the EC50 in assay [3] is on record as > 195 µM (not active).
With `Cc1cc(/C=N/N2CCN(C)CC2)c(C)n1-c1ccccc1F`, the EC50 in assay [1] was 1.81 µM (active); in assay [2], > 60 µM (not active).
Turning to `Cc1cc(C)cc(N(C(=O)Cc2cccs2)C(C(=O)NC2CCCCC2)c2ccccn2)c1` (configuration not stated), the AC50 in assay [4] was 0.891 µM (inconclusive).
In the case of `Cc1c(-c2ccccc2)[n+]([O-])c2c([n+]1[O-])CCC2`, the EC50 in assay [3] is > 195 µM (not active).
Still for that read-out and setting: then `Cc1cc(C)n(C(=O)CNC(=O)Cc2ccccc2)n1`, with > 195 µM (not active).
For `CCc1nc(SCC(=O)NCCc2ccc(OC)c(OC)c2)c2c(=O)n(C)c(=O)n(C)c2n1`, the EC50 in assay [3] is listed as > 195 µM (not active).
For `CO[C@H]1COC(=O)C/C=C\[C@@H](C)COC(=O)[C@@H](CCSC)NC(=O)C/C=C\[C@@H]1C`, the AC50 in assay [4] is 3.98 µM (inconclusive) and 5.01 µM (inconclusive).
`C=CCOc1ccccc1CN1CCCC(CCC(=O)N(C)CCc2ccccn2)C1` (configuration not stated): the EC50 in assay [1] was 0.412 µM (active); in assay [2], > 60 µM (not active).
With `CCCC(=O)NC(N=C(S)Nc1ccc(N=Nc2ccccc2)cc1)C(Cl)(Cl)Cl` (configuration not stated), the AC50 in assay [8] was 5.34 µM (active).
Turning to `C/C(=N\OC(=O)NC(C)C)c1sc(-c2ccc(Cl)cc2)nc1C`, in assay [4], the AC50 was 31.6 µM (inconclusive).
Take `CCOP(=O)(OCC)c1nc(-c2cccc3ccccc23)oc1NCc1ccc(OC)cc1`: the EC50 in assay [1] was 2.45 µM (active); in assay [2], > 60 µM (not active).
For `CCNC(=O)NC(=O)c1csc([N+](=O)[O-])c1`, in that order: 0.415 µM (active) and > 30 µM (not active).
Regarding `O=C(CN1CC=C(c2ccccc2)CC1)NC(=O)NCc1ccccc1`, the EC50 in assay [3] is > 195 µM (not active).
For `Oc1nc2ccccc2n2cnnc12`, in assay [3], the EC50 is given as > 195 µM (not active).
Regarding `CCN(CC)CCOCCOc1cc(C)c(Cl)c(C)c1`, the EC50 was 0.408 µM (active) in assay [1] and 9.47 µM (active) in assay [2].
Regarding `O=C(c1ccco1)N(Cc1cc2ccccc2nc1O)C1CCCCC1`, the EC50 in assay [3] is > 195 µM (not active).
As to `COc1ccc(OC)c(C2/C(=C(\O)c3ccccc3)C(C)=Nc3nc4ccccc4n32)c1` (configuration not stated), the EC50 in assay [1] is 1.51 µM (active); in assay [2] it was > 60 µM (not active).
For the compound `C[C@@H](c1ccccc1)N1C(=O)[C@H]2[C@H]3[C@H](O)[C@H](O)C/C(=N/OCc4ccccc4)[C@H]3CC[C@@H]2C1=O`, the AC50 in assay [4] is 3.16 µM (inconclusive).
As for `Cc1ccc(NC(=O)CCN2CCCCC2)cc1`, in assay [3], the EC50 was 4.53 µM (active).

The values are drawn from ChEMBL document CHEMBL1201862, “PubChem BioAssay data set” (2004).
